Measured values reported in patent publication US20020198158A1, “Use of a cyclic ether for the preparation of medicaments affecting glucose tolerance” (priority 2000, published 2002).
“Also recorded” adds a separate entry of the source.

Tests used:
NMRI mice [1] = assay: Gastric glucose tolerance test; assay type: in vivo; details: gastric gavage glucose 150 mg/mouse with 1,5AnFru 150 mg/mouse
Procedure: (§1) Non-fasted NMRI mice (Bomholdtgaard Breeding and Research Center, Ry, Denmark), weighing 20-25 g are used throughout the study. The animals are fed a standard pellet diet and tap water ad libitum.
(§2) The mice are fasted overnight and anesthetized as above. After induction of anesthesia, D-glucose (150 mg/mouse in 0.5 ml) is administered alone or together with 1,5AnFru (150 mg/mouse) through a gavage tube (outer diameter 1.2 mm) placed in the stomach. Blood samples are taken after 15, 30, 45, 60, 90 and 120 minutes and treated as above.
(§3) Plasma insulin is determined radioimmunochemically with the use of a guinea pig anti-rat insulin antibody, ^125I-labelled porcine insulin as tracer and rat insulin as standard (Linco Research, St Charles, Mo., USA). Free and bound radioactivity is separated by use of an anti-IgG (goat anti-guinea pig) antibody (Linco). The sensitivity of the assay is 12 pmol/l and the coefficiency of variation is less than 3% at both low and high levels. Plasma glucose is determined with the glucose oxidase method. Plasma GLP-1 is measured by a radioimmunoassay after extraction of plasma samples with ethanol. 400 μl 0.05 mol/l sodium phosphate buffer, pH 7.5, containing 6% albumin and 0.1 mol/l NaCl is added to 100 μl mouse plasma on ice and mixed well. The mixture is then extracted with 70% ethanol (vol/vol, final dilution), and after vacuum centrifugation the residue is reconstituted in assay buffer and assayed as previously described (Ørskov et al., 1994). […] The sensitivity using this procedure is 5 pmol/l, and the intra-assay coefficient of variation is 10%.
(§4) Means±SEM are shown. Area under the curve for plasma insulin levels (AUCisulin) is calculated by the trapezoid rule. Statistical analyses are performed with the SPSS for Windows system. Statistical comparisons between groups are performed with Students t-test.

GLP-1 = assay: Plasma GLP-1 after gastric gavage; assay type: in vivo, mice; details: P<0.05
Procedure: as §1, §2
Plasma insulin is determined radioimmunochemically with the use of a guinea pig anti-rat insulin antibody, ^125I-labelled porcine insulin as tracer and rat insulin as standard (Linco Research, St Charles, Mo., USA). Free and bound radioactivity is separated by use of an anti-IgG (goat anti-guinea pig) antibody (Linco). The sensitivity of the assay is 12 pmol/l and the coefficiency of variation is less than 3% at both low and high levels. Plasma glucose is determined with the glucose oxidase method. Plasma GLP-1 is measured by a radioimmunoassay after extraction of plasma samples with ethanol. 400 μl 0.05 mol/l sodium phosphate buffer, pH 7.5, containing 6% albumin and 0.1 mol/l NaCl is added to 100 μl mouse plasma on ice and mixed well. […]

isolated mouse islets = assay: Insulin secretion in vitro from isolated islets; assay type: cell-based; details: 60 min incubation
Procedure: Pancreatic islets are isolated from four mice with the collagenase isolation technique. In brief, the pancreas is filled retrogradely through the pancreatic duct with 3 ml of Hank's Balanced Salt Solution (Sigma), supplemented with 0.3 mg/ml of Collagenase P (activity 1.86 U/mg; Boehringer Mannheim Gmbh, Mannheim, Germany). The pancreas is subsequently removed and incubated in the same solution for 20 min at 37° C. After rinsing, the islets are handpicked under a stereomicroscope and incubated overnight in RPMI 1640 medium supplemented with 10% fetal calf serum, 2.05 mmol/l L-glutamine, 2.5 μg/ml amphotericin B (GIBCO BRL, Paisley, Scotland), 100 lU/ml penicillin and 100 μg/ml streptomycin (Biol Ind, Beit Haemek, Israel) at 37° C. in humidified air equilibrated with 5% CO2. […]
Plasma insulin is determined radioimmunochemically with the use of a guinea pig anti-rat insulin antibody, ^125I-labelled porcine insulin as tracer and rat insulin as standard (Linco Research, St Charles, Mo., USA). Free and bound radioactivity is separated by use of an anti-IgG (goat anti-guinea pig) antibody (Linco). […] Plasma glucose is determined with the glucose oxidase method. Plasma GLP-1 is measured by a radioimmunoassay after extraction of plasma samples with ethanol. […]

NMRI mice [2] = assay: Intravenous glucose tolerance test; assay type: in vivo; details: for AUCinsulin (area under the insulin curve during the 50 min study period): anesthetized mice
Procedure: as §1
The mice are anesthetized with an intraperitoneal injection of midazolam (Dormicum^R, Hoffman-La-Roche, Basel, Switzerland, 0.4 mg/mouse) and a combination of fluanison (0.9 mg/mouse) and fentanyl (0.02 mg/mouse; Hypnorm^R, Janssen, Beerse, Belgium). Thereafter, a blood sample is taken from the retrobulbar, intraorbital, capillary plexus in heparinized tubes, whereafter D-glucose (British Drug Houses, Poole, UK; 1 g/kg) is injected rapidly intravenously either alone or together with 1,5AnFru (Danisco Ltd, Copenhagen, Denmark; 0.2 or 1 g/kg); in one series of experiments, 1,5AnFru is given alone (1 g/kg). The volume load is 10 μl/g body weight. New blood samples are taken after 1, 5, 10, 20, 30 and 50 minutes. In another set of experiments, 1,5AnFru is given by gastric gavage (0.2 g/kg) five minutes before the zero blood sample taken immediately before the intravenous injection of glucose as above. Blood samples are taken as above. Following immediate centrifugation at 4° C., plasma is separated and stored at −20° C. or until analysis.
as §3, §4

O=C1CO[C@H](CO)[C@@H](O)[C@@H]1O [1,5AnFru, 1,5-anhydro-D-fructose]
AUCinsulin during 60 min (NMRI mice [1]; P=0.018 vs control): 32.9 ± 2.6 nmol/L | AUCinsulin during the first 60 min after administration (NMRI mice [1]; P=0.018 vs controls): 32.9±2.6 nmol/l in 60 min | 60 min plasma glucose value (NMRI mice [1]; P=0.021 vs controls): 15.5 ± 1.6 mmol/L | plasma GLP-1, 30 min value (GLP-1; 30 min after gastric gavage of glucose 150 mg/mouse with 1,5AnFru 150 mg/mouse): 78.2 ± 8.6 pmol/L | plasma GLP-1, 60 min value (GLP-1; 60 min after gastric gavage of glucose 150 mg/mouse with 1,5AnFru 150 mg/mouse): 28.8 ± 3.8 pmol/L | glucose-stimulated insulin secretion (isolated mouse islets; 16.7 mmol/l 1,5AnFru together with 11.1 mmol/l glucose): inhibition of insulin secretion is observed; also recorded: inhibits | glucose-stimulated insulin secretion (isolated mouse islets; 1,5AnFru at 11.1 mmol/l or below): does not affect | glucose-stimulated insulin secretion (insulin response to iv glucose) (NMRI mice [2]; 1,5AnFru 1 g/kg iv together with glucose 1 g/kg iv): inhibits | basal plasma levels of insulin or glucose (NMRI mice [2]; 1,5AnFru given alone iv, 1 g/kg): not affected | AUCinsulin (area under the insulin curve during the 50 min study period) (NMRI mice [2]; iv glucose 1 g/kg together with 1,5AnFru 0.2 g/kg iv): 14.6±1.9 nmol/l×50 min | AUCinsulin (area under the insulin curve during the 50 min study period) (NMRI mice [2]; iv glucose 1 g/kg together with 1,5AnFru 1 g/kg iv, P=0.021 vs glucose alone): 8.6±1.9 nmol/l×50 min | glucose elimination after intravenous glucose administration (NMRI mice [2]; iv glucose 1 g/kg with 1,5AnFru iv, 50 min study period): not affected; also recorded: without affecting
